From ChEMBL document CHEMBL1201862, “PubChem BioAssay data set” (2004)
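A five-concentration, 48-hour dose response in 96-well plates underlies each endpoint, interpolated linearly between surrounding concentrations. Abbreviation: GI50, concentration required for 50% inhibition of growth.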 Calls of active or inactive are those of the source. Rule as the data show it: active = GI50 up to about 1.1 µM and inactive = higher.

Key:
Assay in all cases: inhibition of tumour cell growth, NCI panel, 48 h
SF-295 = test system: SF-295
RXF 393 = test system: RXF 393
SK-MEL-2 = test system: SK-MEL-2
UACC-62 = test system: UACC-62
HOP-62 = test system: HOP-62
SF-268 = test system: SF-268
SN12C = test system: SN12C
CCRF-CEM = test system: CCRF-CEM
NCI-H460 = test system: NCI-H460
MDA-MB-231 = test system: MDA-MB-231
SK-MEL-5 = test system: SK-MEL-5
Hs-578T = test system: Hs-578T
K562 = test system: K562
MOLT-4 = test system: MOLT-4
SNB-19 = test system: SNB-19
KM12 = test system: KM12
NCI/ADR-RES = test system: NCI/ADR-RES
A498 = test system: A498
SF-539 = test system: SF-539
CAKI-1 = test system: CAKI-1
SK-MEL-28 = test system: SK-MEL-28
HCT-15 = test system: HCT-15
PC-3 = test system: PC-3
COLO 205 = test system: COLO 205
T47D = test system: T47D
BT-549 = test system: BT-549
EKVX = test system: EKVX
OVCAR-5 = test system: OVCAR-5
SK-OV-3 = test system: SK-OV-3
NCI-H226 = test system: NCI-H226
UO-31 = test system: UO-31
SNB-75 = test system: SNB-75
RPMI-8226 = test system: RPMI-8226
HCC 2998 = test system: HCC 2998
MCF7 = test system: MCF7
M14 = test system: M14
MDA-MB-435 = test system: MDA-MB-435
OVCAR-8 = test system: OVCAR-8
HCT-116 = test system: HCT-116
DU-145 = test system: DU-145
U-251 = test system: U-251
HT-29 = test system: HT-29
IGROV-1 = test system: IGROV-1
786-0 = test system: 786-0
NCI-H23 = test system: NCI-H23
A549 = test system: A549
OVCAR-4 = test system: OVCAR-4
SW-620 = test system: SW-620
HL-60 = test system: HL-60
NCI-H522 = test system: NCI-H522
SR = test system: SR
OVCAR-3 = test system: OVCAR-3
Malme-3M = test system: Malme-3M
ACHN = test system: ACHN
LOX IMVI = test system: LOX IMVI
UACC-257 = test system: UACC-257
HOP-92 = test system: HOP-92
TK-10 = test system: TK-10

SMILES: Cc1ccc(OCC2OC(C#N)C(Oc3ccc(C)cc3)C2Oc2ccc(C)cc2)cc1 (stereo not given)
- GI50 (SF-295): > 100 µM (inactive)
- GI50 (RXF 393): > 100 µM (inactive)
- GI50 (SK-MEL-2): 51.8 µM (inactive)
- GI50 (UACC-62): > 100 µM (inactive)
- GI50 (HOP-62): > 100 µM (inactive)
- GI50 (SF-268): > 100 µM (inactive)
- GI50 (SN12C): > 100 µM (inactive)
- GI50 (CCRF-CEM): > 100 µM (inactive)
- GI50 (NCI-H460): > 100 µM (inactive)
- GI50 (MDA-MB-231): > 100 µM (inactive)
- GI50 (SK-MEL-5): > 100 µM (inactive)
- GI50 (Hs-578T): > 100 µM (inactive)
- GI50 (K562): > 100 µM (inactive)
- GI50 (MOLT-4): > 100 µM (inactive)
- GI50 (SNB-19): > 100 µM (inactive)
- GI50 (KM12): > 100 µM (inactive)
- GI50 (NCI/ADR-RES): > 100 µM (inactive)
- GI50 (A498): > 100 µM (inactive)
- GI50 (SF-539): > 100 µM (inactive)
- GI50 (CAKI-1): > 100 µM (inactive)
- GI50 (SK-MEL-28): > 100 µM (inactive)
- GI50 (HCT-15): > 100 µM
- GI50 (PC-3): > 100 µM (inactive)
- GI50 (COLO 205): > 100 µM (inactive)
- GI50 (T47D): > 100 µM (inactive)
- GI50 (BT-549): > 100 µM (inactive)
- GI50 (EKVX): > 100 µM (inactive)
- GI50 (OVCAR-5): > 100 µM (inactive)
- GI50 (SK-OV-3): > 100 µM (inactive)
- GI50 (NCI-H226): > 100 µM (inactive)
- GI50 (UO-31): > 100 µM (inactive)
- GI50 (SNB-75): 6.79 µM (inactive)
- GI50 (RPMI-8226): > 100 µM (inactive)
- GI50 (HCC 2998): > 100 µM (inactive)
- GI50 (MCF7): > 100 µM (inactive)
- GI50 (M14): > 100 µM (inactive)
- GI50 (MDA-MB-435): > 100 µM (inactive)
- GI50 (OVCAR-8): > 100 µM (inactive)
- GI50 (HCT-116): > 100 µM (inactive)
- GI50 (DU-145): > 100 µM (inactive)
- GI50 (U-251): > 100 µM (inactive)
- GI50 (HT-29): > 100 µM (inactive)
- GI50 (IGROV-1): > 100 µM (inactive)
- GI50 (786-0): > 100 µM (inactive)
- GI50 (NCI-H23): > 100 µM (inactive)
- GI50 (A549): > 100 µM (inactive)
- GI50 (OVCAR-4): > 100 µM (inactive)
- GI50 (SW-620): > 100 µM (inactive)
- GI50 (HL-60): > 100 µM (inactive)
- GI50 (NCI-H522): > 100 µM (inactive)
- GI50 (SR): > 100 µM (inactive)
- GI50 (OVCAR-3): > 100 µM (inactive)

SMILES: Nc1nc(Cl)c2ncn(Cc3ccc(CCl)cc3)c2n1
- GI50 (Malme-3M): 11.3 µM (inactive)
- GI50 (SF-295): 10.8 µM (inactive)
- GI50 (RXF 393): 1.3 µM (inactive)
- GI50 (SK-MEL-2): 11.5 µM (inactive)
- GI50 (UACC-62): 2.23 µM (inactive)
- GI50 (HOP-62): 6.85 µM (inactive)
- GI50 (SF-268): 1.88 µM (inactive)
- GI50 (ACHN): 9.62 µM (inactive)
- GI50 (SN12C): 12.2 µM (inactive)
- GI50 (LOX IMVI): 5.41 µM (inactive)
- GI50 (CCRF-CEM): 2.68 µM (inactive)
- GI50 (NCI-H460): 4.25 µM (inactive)
- GI50 (MDA-MB-231): 13.1 µM (inactive)
- GI50 (SK-MEL-5): 15.3 µM (inactive)
- GI50 (Hs-578T): 29.2 µM (inactive)
- GI50 (K562): 3.61 µM (inactive)
- GI50 (MOLT-4): 2.96 µM (inactive)
- GI50 (SNB-19): 6.78 µM (inactive)
- GI50 (KM12): 8.07 µM (inactive)
- GI50 (NCI/ADR-RES): 3.33 µM (inactive)
- GI50 (UACC-257): 12.5 µM (inactive)
- GI50 (A498): 22 µM (inactive)
- GI50 (SF-539): 3.13 µM (inactive)
- GI50 (CAKI-1): 2.49 µM (inactive)
- GI50 (SK-MEL-28): 18 µM (inactive)
- GI50 (HCT-15): 4.95 µM
- GI50 (PC-3): 7.45 µM (inactive)
- GI50 (COLO 205): 3.64 µM (inactive)
- GI50 (T47D): 6.98 µM (inactive)
- GI50 (BT-549): 6.84 µM (inactive)
- GI50 (EKVX): 2.58 µM (inactive)
- GI50 (OVCAR-5): 3.29 µM (inactive)
- GI50 (HOP-92): 1.64 µM (inactive)
- GI50 (SK-OV-3): 15.1 µM (inactive)
- GI50 (NCI-H226): 10.4 µM (inactive)
- GI50 (UO-31): 11.9 µM (inactive)
- GI50 (SNB-75): 23.1 µM (inactive)
- GI50 (RPMI-8226): 3.83 µM (inactive)
- GI50 (HCC 2998): 0.497 µM (active)
- GI50 (MCF7): 2.81 µM (inactive)
- GI50 (M14): 14 µM (inactive)
- GI50 (MDA-MB-435): 16.6 µM (inactive)
- GI50 (OVCAR-8): 5.13 µM (inactive)
- GI50 (HCT-116): 2.76 µM (inactive)
- GI50 (DU-145): 6.59 µM (inactive)
- GI50 (U-251): 3.56 µM (inactive)
- GI50 (HT-29): 9.73 µM (inactive)
- GI50 (IGROV-1): 9.23 µM (inactive)
- GI50 (786-0): 5.31 µM (inactive)
- GI50 (NCI-H23): 12 µM (inactive)
- GI50 (A549): 15.7 µM (inactive)
- GI50 (OVCAR-4): 15.6 µM (inactive)
- GI50 (TK-10): 16.6 µM (inactive)
- GI50 (SW-620): 3.37 µM (inactive)
- GI50 (HL-60): 6.81 µM (inactive)
- GI50 (NCI-H522): 10.7 µM (inactive)
- GI50 (SR): 3.02 µM (inactive)
- GI50 (OVCAR-3): 2.16 µM (inactive)
